The target in this data set is IRF5. As to conditions: ASO.

Where “and” joins values, the source holds several entries; their conditions need not be identical. Equal entries are not always repeated. After the bases stand the sugars from the 5' end (letter, count) and the backbone: PS all phosphorothioate, else s phosphorothioate and o phosphodiester by linkage. Methylation of C is not given here. [mop] = methoxypropylphosphonate linkage; e = 2'-O-(2-methoxyethyl) (MOE); k = constrained ethyl (cEt); d = 2'-deoxy (DNA); m = 2'-O-methyl

For “TGTCTAGTGTCATGGA (sugars k2 d9 e3 k2, PS)”, the target mRNA inhibition is, setting by setting: (A-431, 0.00412 µM) 0% and 4%; (A-431, 0.01225 µM) 0% and 2%; (A-431, 0.03704 µM) 24% and 28%; (A-431, 0.11111 µM) 44%; (A-431, 0.33333 µM) 59% and 60%; (A-431, 1 µM) 69% and 74%. Also, the target mRNA inhibition runs as follows: (KARPAS-229, 0.44444 µM) 33%; (KARPAS-229, 1.33333 µM) 50%; (KARPAS-229, 4 µM) 60% and 57%; (KARPAS-229, 12 µM) 70%.

“GCTGTCACATCTCCAC (sugars kkddddddddddkeke, PS)” registered a target mRNA inhibition (KARPAS-229, 4 µM) of 8%.

For the sequence “CCATTCTATGCCTTTT (sugars k3 d9 k3 e1, PS)”, the target mRNA inhibition (KARPAS-229, 0.44444 µM) turned out to be 31%; the target mRNA inhibition (KARPAS-229, 1.33333 µM) was found to be 44%; the target mRNA inhibition (KARPAS-229, 4 µM) is 58% and 70%; the target mRNA inhibition (KARPAS-229, 12 µM) was 78%.

Regarding TGTCTAGTGTCATGGA (sugars k3 d10 k3, PS), the target mRNA inhibition reads like this: (KARPAS-229, 0.44444 µM) 0%; (KARPAS-229, 1.33333 µM) 42%; (KARPAS-229, 4 µM) 61% and 65%; (KARPAS-229, 12 µM) 74%.

In turn, “CCTTCTGCAGGGAGTC (sugars kkddddddddkekekk, PS)” displayed a target mRNA inhibition (KARPAS-229, 4 µM) of 0%.

Take “AGGTTCTTGGACTCTC (sugars kkkddddddddkekek, PS)”: the target mRNA inhibition (KARPAS-229, 4 µM) was found to be 8%.

Consider “GGTCTTGACCTCCCGC (sugars kdddddddddkekeke, PS)”, for which the target mRNA inhibition (KARPAS-229, 4 µM) amounted to 35%.

The sequence “CTGATATGATACCTAA (sugars k3 d10 k3, linkages s4 [mop]1 s10)” returned a target mRNA inhibition (A-431, 0.00412 µM) of 11%; a target mRNA inhibition (A-431, 0.01225 µM) of 22%; a target mRNA inhibition (A-431, 0.03704 µM) of 29%; a target mRNA inhibition (A-431, 0.11111 µM) of 56%; a target mRNA inhibition (A-431, 0.33333 µM) of 76%; a target mRNA inhibition (A-431, 1 µM) of 78%.

In the case of “CATTCTATGCCTTTTA (sugars kdddddddddkekeke, PS)”, the target mRNA inhibition (KARPAS-229, 4 µM) was determined as 13%.

Where the note is “KARPAS-229, 4 µM”, “CCACTGTGTACCCCAT (sugars k2 d8 e4 k2, PS)” had a target mRNA inhibition of 44%.

“ACATCTCCACATCAGT (sugars kkdddddddddkekek, PS)” displayed a target mRNA inhibition (KARPAS-229, 4 µM) of 16%.

“AGGTTCTTGGACTCTC (sugars kdddddddddkekeke, PS)” gave a target mRNA inhibition (KARPAS-229, 4 µM) of 0%.

“CATTCTATGCCTTTTA (sugars kddddddddddkekek, PS)”: the target mRNA inhibition (KARPAS-229, 4 µM) was 37%.

In the case of AGATGGTGTTATCTCC (sugars k3 d10 k3, PS), the target mRNA inhibition (KARPAS-229, 4 µM) turned out to be 0%.

As for “GGTCTTTGAGGTCTGG (sugars kkdddddddddkekek, PS)”, the target mRNA inhibition (KARPAS-229, 4 µM) turned out to be 54%.

With ATCTGATATGATACCT (sugars k3 d10 k3, PS), the target mRNA inhibition (KARPAS-229, 4 µM) was 36%.

For the sequence AGTAGGACGAGTTATG (sugars k3 d10 k3, PS), the target mRNA inhibition (KARPAS-229, 4 µM) is 0%.

With CCTATACAGCTAGGCC (sugars k3 d10 k3, PS), the target mRNA inhibition (KARPAS-229, 4 µM) came to 0%.

Regarding TTTTGTGACTGTATTA (sugars k3 d10 k3, PS), the target mRNA inhibition (KARPAS-229, 4 µM) was found to be 2%.

Regarding “GGTGTATTTCCCTGTC (sugars kkkdddddddddkeke, PS)”, the target mRNA inhibition (KARPAS-229, 4 µM) turned out to be 0%.

In turn, “ACCACTGTGTACCCCA (sugars k3 d9 k3 e1, PS)” came in with a target mRNA inhibition (KARPAS-229, 4 µM) of 47%.

Consider “TGAGTCATGGGCTGAG (sugars kkkddddddddkekek, PS)”, for which the target mRNA inhibition (KARPAS-229, 4 µM) turned out to be 0%.

“GAGTCATGGGCTGAGG (sugars kkdddddddddkekek, PS)”: for the setting “KARPAS-229, 4 µM”, the target mRNA inhibition worked out at 15%.

In the case of “GGTCTTTGAGGTCTGG (sugars kkkddddddddkekek, PS)”, the target mRNA inhibition (KARPAS-229, 4 µM) is 46%.

Sequence “GATGGTGTTATCTCCG (sugars kkddddddddkekekk, PS)” returned a target mRNA inhibition (KARPAS-229, 4 µM) of 0%.

Where the note is “KARPAS-229, 4 µM”, ATGCAACATCCATCAA (sugars k3 d10 k3, PS) registered a target mRNA inhibition of 0%.

As for AAGATGGTGTTATCTC (sugars k3 d10 k3, PS), where the note is “KARPAS-229, 4 µM”, the target mRNA inhibition is 0%.

Under “KARPAS-229, 4 µM”, “GGAAGTGAGTCTCAAA (sugars k2 d8 e4 k2, PS)” yielded a target mRNA inhibition of 34%.

Regarding “GCTTGGTCTTGACCTC (sugars kkkdddddddddkeke, PS)”, where the note is “KARPAS-229, 4 µM”, the target mRNA inhibition came to 35%.

Take “TGAGTCATGGGCTGAG (sugars k2 d8 e4 k2, PS)”: the target mRNA inhibition (KARPAS-229, 4 µM) turned out to be 15%.

“GCTGTCACATCTCCAC (sugars kdddddddddkekeke, PS)” returned a target mRNA inhibition (KARPAS-229, 4 µM) of 0%.

Turning to CTTGTCTAGTGTCATG (sugars k3 d10 k3, PS), the target mRNA inhibition (KARPAS-229, 4 µM) is 58%.

Turning to “ACCATTCTATGCCTTT (sugars kekdddddddddeekk, PS)”, under “KARPAS-229, 4 µM”, the target mRNA inhibition amounted to 51%.

Regarding “TGTCTAGTGTCATGGA (sugars kkdmdddddddeeekk, PS)”, the target mRNA inhibition (A-431, 0.00412 µM) turned out to be 0%; the target mRNA inhibition (A-431, 0.01225 µM) was 11%; the target mRNA inhibition (A-431, 0.03704 µM) was 5%; the target mRNA inhibition (A-431, 0.11111 µM) stood at 15%; the target mRNA inhibition (A-431, 0.33333 µM) was 25%; the target mRNA inhibition (A-431, 1 µM) stood at 33%.

GCATTCCATATACACA (sugars k3 d10 k3, PS) gave a target mRNA inhibition (KARPAS-229, 4 µM) of 21%.

For the setting “KARPAS-229, 4 µM”, “GAGTCTCAAACCAGGG (sugars kkddddddddkekekk, PS)” gave a target mRNA inhibition of 0%.

Take “CACATCTCCACATCAG (sugars kkddddddddkekekk, PS)”: for the setting “KARPAS-229, 4 µM”, the target mRNA inhibition came to 17%.

In the case of “TTATCTCCGTCCTGGC (sugars k2 d9 e3 k2, PS)”, where the note is “KARPAS-229, 4 µM”, the target mRNA inhibition was 5%.

As for “GCATTCCATATACACA (sugars kkdddddddddkekek, PS)”, under “KARPAS-229, 4 µM”, the target mRNA inhibition was 2%.

On to “GGTTCTTGGACTCTCA (sugars kkkddddddddkekek, PS)”, for which, under “KARPAS-229, 4 µM”, the target mRNA inhibition amounted to 25%.

CTTGGTCTTGACCTCC (sugars k3 d10 k3, PS) displayed a target mRNA inhibition (KARPAS-229, 4 µM) of 41%.

As for “TTGTCTAGTGTCATGG (sugars kkddddddddkekekk, PS)”, the target mRNA inhibition (KARPAS-229, 4 µM) amounted to 0%.

For the sequence “TTATTTCTGCTCCAGG (sugars kekdddddddddeekk, PS)”, the target mRNA inhibition by setting is: (KARPAS-229, 0.44444 µM) 53%; (KARPAS-229, 1.33333 µM) 69%; (KARPAS-229, 4 µM) 56% and 80%; (KARPAS-229, 12 µM) 86%.

“GCACTGACACAGGCGG (sugars kddddddddddkekek, PS)”: the target mRNA inhibition (KARPAS-229, 4 µM) worked out at 0%.

With AAGGGCACAGCGCAGG (sugars k2 d11 k3, PS), the target mRNA inhibition (KARPAS-229, 4 µM) is 0% and 2%.

On to “GTTATCTCCGTTCCTGG (sugars kddddddddddkekekd, PS)”, for which the target mRNA inhibition (KARPAS-229, 4 µM) came to 0%.

For the setting “KARPAS-229, 4 µM”, “CAGGTTCTTGGACTCT (sugars kkddddddddddkeke, PS)” displayed a target mRNA inhibition of 28%.

Where the note is “KARPAS-229, 4 µM”, “TCTTGACCTCCCGCTG (sugars kddddddddddkekek, PS)” returned a target mRNA inhibition of 46%.

“AGCTTGGTCTTGACCT (sugars k3 d9 k3 e1, PS)” yielded a target mRNA inhibition (KARPAS-229, 4 µM) of 10%.

“CACATCTCCACATCAG (sugars kkkddddddddkekek, PS)” had a target mRNA inhibition (KARPAS-229, 4 µM) of 43%.

Regarding “TTGTCTAGTGTCATGG (sugars kkkddddddddkekek, PS)”, the target mRNA inhibition (KARPAS-229, 4 µM) is 16%.

In turn, “GTGTATTTCCCTGTCT (sugars kkkddddddddkekek, PS)” had a target mRNA inhibition (KARPAS-229, 4 µM) of 0%.

With CTCTAAACCATTCTAT (sugars k3 d10 k3, PS), the target mRNA inhibition (KARPAS-229, 4 µM) was determined as 0%.

Consider “GTTATCTCCGTTCCTGG (sugars kkkddddddddkdkdkd, PS)”, for which the target mRNA inhibition (KARPAS-229, 4 µM) stood at 27%.

On to “TTATCTCCGTCCTGGC (sugars kkdddddddddkdkdk, PS)”, for which, where the note is “KARPAS-229, 4 µM”, the target mRNA inhibition stood at 14%.

As to “CACTGACACAGGCGGA (sugars kkkdddddddddkeke, PS)”, where the note is “KARPAS-229, 4 µM”, the target mRNA inhibition worked out at 0%.

As for “TTATTTCTGCTCCAGG (sugars kdddddddddkekeke, PS)”, the target mRNA inhibition (KARPAS-229, 4 µM) was determined as 0%.

Under “KARPAS-229, 4 µM”, “AAGGGCACAGCGCAGG (sugars kddddddddddkekek, PS)” came in with a target mRNA inhibition of 0%.

“ACATCTCCACATCAGT (sugars k2 d8 e4 k2, PS)”: the target mRNA inhibition (KARPAS-229, 4 µM) was determined as 24%.

For the sequence “CTGTCACATCTCCACA (sugars k2 d8 e4 k2, PS)”, the target mRNA inhibition (KARPAS-229, 4 µM) was found to be 11%.

In turn, “GTGAGTCTCAAACCAG (sugars kddddddddddkekek, PS)” yielded a target mRNA inhibition (KARPAS-229, 4 µM) of 0%.

With “CCCAATGCAACATCCA (sugars kddddddddddkekek, PS)”, the target mRNA inhibition (KARPAS-229, 4 µM) was 0%.

Consider “TCTGATATGATACCTA (sugars k3 d1 m1 d8 k3, PS)”, for which the target mRNA inhibition runs as follows: (A-431, 0.00412 µM) 1%; (A-431, 0.01225 µM) 8%; (A-431, 0.03704 µM) 35%; (A-431, 0.11111 µM) 57%; (A-431, 0.33333 µM) 77%; (A-431, 1 µM) 81%.

For the sequence “CTTCTGCAGGGAGTCA (sugars k2 d8 e4 k2, PS)”, the target mRNA inhibition (KARPAS-229, 4 µM) turned out to be 0%.

Where the note is “KARPAS-229, 4 µM”, “GTGAGTCTCAAACCAG (sugars kkkdddddddddkeke, PS)” had a target mRNA inhibition of 0%.

Consider GGAAGTGAGTCTCAAA (sugars k3 d10 k3, PS), for which the target mRNA inhibition is, setting by setting: (KARPAS-229, 0.44444 µM) 27%; (KARPAS-229, 1.33333 µM) 39%; (KARPAS-229, 4 µM) 51% and 68%; (KARPAS-229, 12 µM) 79%.

With “TGTCACATCTCCACAT (sugars kddddddddddkekek, PS)”, the target mRNA inhibition (KARPAS-229, 4 µM) was found to be 16%.

Under “KARPAS-229, 4 µM”, “ACCACTGTGTACCCCA (sugars kddddddddddkekek, PS)” displayed a target mRNA inhibition of 43%.

As for “CCAATGCAACATCCAT (sugars kkkddddddddkekek, PS)”, for the setting “KARPAS-229, 4 µM”, the target mRNA inhibition came out at 0%.

On to “AGCTTGGTCTTGACCT (sugars kkkdddddddddkeke, PS)”, for which the target mRNA inhibition (KARPAS-229, 4 µM) is 26%.

“GTGAGTCTCAAACCAG (sugars kkddddddddkekekk, PS)” returned a target mRNA inhibition (KARPAS-229, 4 µM) of 9%.

As for “TCTGATATGATACCTA (sugars k3 d1 k1 d8 k3, PS)”, the target mRNA inhibition is, setting by setting: (A-431, 0.00412 µM) 0%; (A-431, 0.01225 µM) 7%; (A-431, 0.03704 µM) 43%; (A-431, 0.11111 µM) 65%; (A-431, 0.33333 µM) 81%; (A-431, 1 µM) 85%.

Regarding “GTCTGGCCCTTTTGGA (sugars kkddddddddddkeke, PS)”, for the setting “KARPAS-229, 4 µM”, the target mRNA inhibition is 0%.

For the origin of these results see the OligoGym collection.
